From patent US20250360071A1, “AGENT FOR INDUCING CILIUM” (MED R&D Co. Ltd, priority 2022, published 2025)

Experiments:
HFDPCs = test: Co-culture system of Caco-2 and HFDPC, hair growth marker expression, Experimental Example 4; type: cell-based, human; conditions: added inside the Caco-2 insert; saponin mixture 5 μg/mL, finasteride 10 μM; after 2, 6 and 12 hours; vs control
Experimental: An examination was carried out using a co-culture system of Caco-2 and an HFDPC which are human intestinal epithelial cell lines. FIG. 8 is a schematic view illustrating a co-culture system of the present Experimental Example. […] A permeable membrane having a pore size of […] was disposed on the bottom surface of the 96-well insert. […] In a case where the drug is permeable to the intestinal epithelial cells, with the addition of the drug into the inside of the transwell insert of the co-culture system, the drug permeates from the apex side (lumen side) to the basal side (vascular side) of the Caco-2 cells. Furthermore, the drug that permeated acts on the HFDPCs seeded on the receiver plate. A mixture in which each saponin was mixed at a ratio shown in Table 1 below (which may hereinafter be referred to as a “saponin mixture”) was used as a sample for the examination. The saponin mixture was added to the inside of the transwell insert of the co-culture system so that a concentration thereof was 5 μg/mL. Subsequently, the expression of the hair growth marker in the HFDPCs seeded on the receiver plate was measured by quantitative real-time PCR after 2 hours, 6 hours, and 12 hours. As the hair growth markers, a CTNNB1 gene (β-catenin), an ALPL gene (alkaline phosphatase), and an FGF1 gene (fiblobrast growth factor 1) were measured. […]

Iqcb1 = Iqcb1 expression from transcriptome / extended network analysis, Experimental Example 8; type: in vivo, mouse; conditions: dorsal skin, 20th day, 1% applied daily
Experimental: (§1) Extended network analysis was performed based on the results of the transcriptome analysis in Experimental Example 6. FIGS. 20 to 22 are views showing the results of the extended network analysis. FIG. 20 is an analysis result obtained from a dataset of the minoxidil treatment group, FIG. 21 is an analysis result obtained from a dataset of the maslinic acid treatment group, and FIG. 22 is an analysis result obtained from a dataset of the tieghemelin treatment group. In FIGS. 20 to 22, a white circle indicates a gene with increased expression, and a black circle indicates a gene with decreased expression. In addition, the size of the circle indicates the magnitude of a change in expression level.
DDX58 is an innate immune receptor that senses viral nucleic acids in the cytoplasm and activates a downstream signal transduction cascade leading to the production of type I interferons or inflammatory cytokines. IQCB1 is a protein known to be involved in formation of cilium.

dorsal skin [1] = test: Gene ontology (GO), GO enrichment and tissue-specific expression analysis of transcriptome, Experimental Example 7; type: in vivo, mouse; conditions: 20th day
Experimental: Gene ontology (GO) analysis and GO enrichment analysis were performed based on the results of the transcriptome analysis in Experimental Example 6.
Subsequently, term enrichment analysis of the genes with expression increased specifically with respect to the skin tissue was performed. Using tissue-specific expression analysis (TSEA), genes related to the skin tissue were filtered, and functions that were specifically enriched in the maslinic acid treatment group and the tieghemelin treatment group and were not enriched in the minoxidil treatment group were selected.

dorsal skin [2] = test: Transcriptome analysis and extended network analysis of dorsal skin, Experimental Examples 6 and 8; type: in vivo, mouse; conditions: 20th day, 1% applied daily; maslinic acid group vs tieghemelin group
Experimental: A mouse in each group of Experimental Example 5 and a mouse in the group which had been subjected to the same treatment as in Experimental Example 5 using 1% tieghemelin (n=6) were euthanized on the 20th day, and the dorsal skin was collected and subjected to transcriptome analysis.
as §1

C3H male mouse = test: Hair growth promoting effect in vivo, application to depilated dorsal skin, Experimental Example 5
Experimental: The oleanane-type triterpenoid was applied to the dorsal skin of a mouse and the hair growth promoting effect was examined. Maslinic acid was used as the oleanane-type triterpenoid. In addition, for comparison, a group in which minoxidil was used and a control group in which only a solvent was applied were prepared.
FIG. 12 is a schematic view showing an experimental schedule. After acclimatization of a C3H male mouse, the dorsal skin was depilated with a shaver and a depilatory cream. Thereafter, 150 μL of 1% minoxidil (n=8), 1% maslinic acid (n=6), or a solvent (n=8) was applied to the mouse in each group every day for 20 days, and the mouse was observed over time.
It is known that the hair cycle of a mouse has three stages of an anagen, a catagen, and a telogen. During the anagen (the 1st day to the 16th day), the hair follicle grows into the deep subcutaneous part. In the catagen (the 17th day to the 19th day), the hair follicle stops growing and regresses to the upper subcutaneous part. In the telogen (the 20th day to the 29th day), the hair shaft is in a state where it can be lost at any time. It is known that the color of the dorsal skin of a mouse changes to pink, gray, and black due to the hair cycle. FIG. 13 is a view showing a change in the color of the dorsal skin of a mouse due to the hair cycle.

dorsal skin [3] = test: Fluorescence immunostaining of dorsal skin tissue sections, Experimental Example 10; type: in vivo, mouse; conditions: 20th day
Text: A mouse in each group of Experimental Examples 5 and 6 was euthanized on the 20th day, the dorsal skin was collected, and the tissue section was subjected to immunostaining.
FIG. 23 is a photomicrograph showing the results of detecting the expressions of β-catenin and K14 by fluorescence immunostaining. In addition, the nuclei were stained with 4′,6-diamidino-2-phenylindole (DAPI). The β-catenin is a hair growth promoting marker and is also a marker for the start of the anagen. K14 is an epidermal marker and is known to increase with the differentiation of hair follicle stem cells.
FIG. 24 is a photomicrograph showing the results of detecting the expression of VEGF by fluorescence immunostaining. In addition, the nuclei were stained with DAPI. VEGF is known to improve the vascularization of hair follicles, increase the size of hair follicles and hair, and promote the growth and circulation of hair follicles.

hair cycle-related genes = test: Fluctuation in expression of hair cycle-related genes from transcriptome, Experimental Example 9; type: in vivo, mouse; conditions: dorsal skin, 20th day
Text: A fluctuation in expression of the hair cycle-related genes was examined, based on the results of the transcriptome analysis in Experimental Example 6.

[4] = fluorescence immunostaining, dorsal skin

## CC(C)(C)NC(=O)[C@H]1CC[C@H]2[C@@H]3CC[C@H]4NC(=O)C=C[C@]4(C)[C@H]3CC[C@]12C [finasteride]
HFDPCs
  expression of the hair growth marker (CTNNB1, ALPL, FGF1) in HFDPCs: induced the expression of the hair growth marker regardless of the treatment time

## CC1(C)CC[C@]2(C(=O)O)CC[C@]3(C)C(=CC[C@@H]4[C@@]5(C)C[C@@H](O)[C@H](O)C(C)(C)[C@@H]5CC[C@]43C)[C@@H]2C1 [maslinic acid]
Iqcb1
  Iqcb1 expression: upregulated
  expression level of Iqcb1 compared with the minoxidil treatment group: increased more
Dorsal skin [1]
  number of genes with decreased expression common among the minoxidil, maslinic acid and tieghemelin treatment groups: 316
  number of genes with decreased expression common between the minoxidil and maslinic acid treatment groups: Seventy-two
  number of genes with increased expression common among the minoxidil, maslinic acid and tieghemelin treatment groups: 342
  number of genes with increased expression common between the minoxidil and maslinic acid treatment groups: Eighty-one
Dorsal skin [1]; functions not enriched in the minoxidil treatment group
  functions specifically enriched among skin-tissue genes with increased expression (TSEA): skin barriers, keratinocytes, proliferation of epithelial cells, pigmentation, and interactions between cytokines and cytokine receptors
Dorsal skin [2]
  pattern of differentially expressed genes in the dorsal skins: showed the same pattern
C3H male mouse; 10th day, 1% applied daily
  black area indicating the late anagen, vs control group: larger black area
  speed of a transition from the telogen to the anagen (order): Minoxidil≈Maslinic acid>Control group
C3H male mouse; 20th day, 1% applied daily
  hair cycle stage observed on the 20th day: transitioned to the next telogen
  speed of transition to the telogen after the anagen and the catagen (order): Minoxidil=Maslinic acid>Control group
C3H male mouse; 150 μL of 1% applied daily, control transitioned from telogen to anagen on the 10th day
  hair cycle stage observed on the 10th day: transition to the late anagen
C3H male mouse; 150 μL of 1% applied to dorsal skin every day for 20 days
  influence on the body weight of the mouse: No influence on the body weight
Dorsal skin [3]; dorsal skin section
  sizes of the hair follicle and the hair shaft: increased
Dorsal skin [3]; [4]
  expression of K14: increase in the expression
  expression of VEGF: increased
  expression of β-catenin: increase in the expression
Hair cycle-related genes
  expression level of BMP4: decreased
  expression of NF-κB: decreased
